The NIST ThermoML archive (doi:10.1016/j.jct.2015.07.035)
Numbers after ± are expanded uncertainties.

Legend:
[1] = 101.33 kPa, Liquid, Vibrating tube method
[2] = refractive index (Na D-line) (dimensionless); conditions: 101.33 kPa, Liquid, Standard Abbe refractometry

Question: With `CC(O)c1ccccc1` (configuration not stated) [1-phenylethanol] as the molecule, how does the mass density ([1]; 298.2 K) read?
Answer: 1006.48 ± 1.1 kg/m3

Question: And the refractive index ([2]; 298.2 K)?
Answer: 1.52467 ± 0.00042

Question: Which mass density ([1]; 298.2 K) does the source give for `CC(C)CC(=O)O` [3-methylbutanoic acid] here?
Answer: 921.34 ± 1.1 kg/m3

Question: And the refractive index ([2]; 298.2 K)?
Answer: 1.40124 ± 0.00042

Question: What does the source list for `Clc1ccccc1` [chlorobenzene]?
Answer: mass density ([1]; 298.2 K): 1101.08 ± 1.1 kg/m3; refractive index ([2]; 298.2 K): 1.52165 ± 0.00042

Question: For `OC1CCCCC1` [cyclohexanol], which mass density ([1]; 303.2 K) is on record?
Answer: 941.42 ± 1.1 kg/m3

Question: What about the refractive index ([2]; 303.2 K) of the same molecule?
Answer: 1.46238 ± 0.00042

Question: What does the source list for `CCCCCCCCCCO` [decan-1-ol]?
Answer: mass density ([1]; 298.2 K): 826.41 ± 1 kg/m3; refractive index ([2]; 298.2 K): 1.43554 ± 0.00042

Question: Which results are given for `c1ccc(COCc2ccccc2)cc1` [dibenzyl ether]?
Answer: mass density ([1]; 298.2 K): 1039.32 ± 1.1 kg/m3; refractive index ([2]; 298.2 K): 1.56019 ± 0.00042
